Key:
PH suspension cells = test: Recovery of Petite Havana suspension cells after DAS-PMTI-1 treatment; format: cell-based, tobacco; conditions: after 7 days at 0.5 mM; after 2 weeks
Excerpt: (§1) BY2 suspension-cultured cells were obtained from Japan tobacco and maintained in LSBY2 medium in a 7 day cycle. Jimsonweed suspension and Pettite Havana tobacco suspensions were initiated from callus initiated at DAS and Xanthi suspensions were procured as a sample from Professor Jack Widholm from UIUC, IL. JT-NT1 suspension cells, obtained from Washington University that are maintained in NT1B medium in 7 day cycle were used only for the pectin degradation enzyme study to separate the cells into single cells. The cells were cultured in shake flasks at 25-28° C. in dark on orbital shakers at 150 rpm. […] The NT-1 cell line is widely used and readily available; though, any tobacco suspension cell line is consistent with the practice of the invention. […]
(§2) Cell expansion and separation were observed by light microscopy (with Nomarski and dark field optics). Spherical cells and single cells were counted by using a hemacytometer to determine the degree of cell expansion and separation, respectively. Cell numbers in aggregates were determined by treating with 5% (wt/vol) chromium trioxide for 16 hr and counting cells (Henshaw et. al, 1966). Cell viability was determined by staining cells (Yokoyama et. al, 1997) with fluorescein diacetate (FDA) and propidium iodide (PI) using a fluorescent microscope (Zeiss Photomicroscope). […]

JTNT1 single cells = test: Cytological characterization of JTNT1 single cells (nucleus, cell wall); format: cell-based, tobacco
Procedure: JTNT1 Tobacco single cell initiation and sample collection. JTNT1 Tobacco single cells were initiated in two different media, NT1B with 3% sucrose (NT1B-Suc) and NT1B with 3% glycerol (NT1B-Gly) in 3.5 day culture cycle. […] The flasks were closed with a foam stopper and cultured on a orbital shaker at 130 rpm in dark at 25-28° C. The cultures were sub cultured every 3.5 days up to a period of 14 days. Four samples (Suc/Gly grown cells and the control cultures in Suc/Gly media with 0.2% DMSO) of the cultures were harvested every 3.5 days by spinning the suspension at 3000 rpm for 5 minutes. The samples were immediately lyophilized to prevent any cell oxidation to minimize any deleterious effect on the samples introduced post harvest. Single cells were stained with Hoechst nuclear stain for an hour and observed under scopes for any nuclear anomaly up to two culture cycles.
Cell viability and Cell wall. Established JTNT1 single cells were used to stain with FUN1 (F-7030, Molecular Probes, Invitrogen Inc) cell stain which is used for viability test in yeast, and this contains two color fluorescent probes. The third one, Calcofluor White M2R which stains cell wall, was used to stain the cells. For JTNT1 single cells, […] of FUN1 stain is added and the culture was incubated at room temperature for 20 mins 1 mL fresh culture media was added to wash the excess stain and centrifuged at 3000 rpm; the supernantant was discarded. The cells were examined and imaged on Zeiss ApoTome microscope.
Nucleus. Single cells were stained with Hoechst nuclear stain for an hour and observed on Zeiss Apo Tome for any nuclear anomaly up to two culture cycles. Crystal violet stain was also used as a live nuclear stain for observing nuclear structure for ploidy characterization

JM cells = test: Effects of colchicine on growth and cell separation of Jimson weed suspension cells; format: cell-based
Excerpt: BY2 suspension-cultured cells were obtained from Japan tobacco and maintained in LSBY2 medium in a 7 day cycle. Jimsonweed suspension and Pettite Havana tobacco suspensions were initiated from callus initiated at DAS and Xanthi suspensions were procured as a sample from Professor Jack Widholm from UIUC, IL. JT-NT1 suspension cells, obtained from Washington University that are maintained in NT1B medium in 7 day cycle were used only for the pectin degradation enzyme study to separate the cells into single cells. The cells were cultured in shake flasks at 25-28° C. in dark on orbital shakers at 150 rpm. […] Stock concentrations of both the tubulin polymerization inhibitors used in this investigation were dissolved in DMSO to prepare a 0.5 M stock solution. The concentration tested for the pectinase and pectolyase enzymes were in the range of 0.0005% to 0.005%. The tobacco suspension cell lines NT-1 and BY-2, for example, are suitable for the practice of the present invention. […] The NT-1 cell line is widely used and readily available; though, any tobacco suspension cell line is consistent with the practice of the invention. […]
Cell expansion and separation were observed by light microscopy (with Nomarski and dark field optics). Spherical cells and single cells were counted by using a hemacytometer to determine the degree of cell expansion and separation, respectively. Cell numbers in aggregates were determined by treating with 5% (wt/vol) chromium trioxide for 16 hr and counting cells (Henshaw et. al, 1966). Cell viability was determined by staining cells (Yokoyama et. al, 1997) with fluorescein diacetate (FDA) and propidium iodide (PI) using a fluorescent microscope (Zeiss Photomicroscope). […] Calcafluor obtained from Sigma, which is a specific fluorescent dye for cellulose is used in this study, and the cellulose-Calcafluor complexing was observed by fluorescence microscopy (Zeiss Photomicroscope). […]

Eragrostis curvula = conditions: seeds treated with 0.05% colchicine, tetraploids; cited from earlier work
maize suspension = test: Single cell production from chlorophyllous maize cell cultures; format: cell-based
Excerpt: The maize photoautotrophi cultures were initiated and maintained in 7 day culture cycles (Jayakumar et. al. 2005). […] The maize suspension units are tightly packed into hard cell aggregates when compared to the dicot cells analyzed.

NT1 suspension cells = test: Effects of colchicine on growth of NT1 suspension cells; format: cell-based, Nicotiana tabacum; conditions: 1 mM
Excerpt: as §1, §2

[1] = system: Xanthi tobacco suspension; test: Single cell induction by colchicine in Xanthi suspension; format: cell-based
Excerpt: as §1, §2

Compound | recovery after subculture in the absence of the compound (PH suspension cells) | nuclear organization of single cells (JTNT1 single cells; 1 uM, 3.5 d cultures) | nuclear ploidy (JTNT1 single cells; 14 days of continuous treatments) | cell growth (JM cells; 0.5 mM) | cell viability (FDA and PI) (JM cells; 1 mM, 7 d) | single suspension cells (JM cells; 1 mM, 7 days) | polymorphic percentage (Eragrostis curvula) | concentration at which active in releasing single cells (maize suspension) | reduction in growth (NT1 suspension cells) | single cell release ([1]; 0.5 mM, 7 d) | single cell release ([1]; 1 mM)
CCOC(=O)COc1nn(-c2ccccc2)c(-c2ccccc2)c1Cl [DAS-PMTI-1] | recovered as single cells with a low frequency | single nucleus | low or no nuclear ploidy percentage |  |  |  |  |  |  |  | 
COc1cc2c(c(OC)c1OC)-c1ccc(OC)c(=O)cc1[C@@H](NC(C)=O)CC2 [Colchicine] |  |  |  | drastically affected | high viability | high degree of single suspension cells | 1.09% | above 0.5 mM | ~50% | partial release of single cells | Separated single cells

— US8206983B2, “In vitro methods for the induction and maintenance of plant cell lines as single suspension cells with intact cell walls” (Dow AgroSciences, LLC., priority 2006, dated 2012)
